Source: PubChem BioAssay AID248 (DTP/NCI, 2004)
Several values for one entry are separate records, joined by “and”; a condition that tells them apart may be missing. Equal values may be shown once. Toxic doses and inconclusive results are not listed. Rule as the data show it: active = T/C of 150% or more; inactive = T/C below 125%.

System: L1210 leukemia ip in BDF1 mice, survival T/C
Assay: NCI In Vivo Anticancer Drug Screen. Data for tumor model L1210 Leukemia (intraperitoneal) in B6D2F1 (BDF1) mice
Conditions: endpoint: mean survival time, higher = longer survival
In short: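 Survival endpoint. Drug-treated group vs vehicle group, expressed as T divided by C. Tumor passaged by transplantation.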

[1] = dose: 100.0 mg/kg/injection, schedule: Q04DX003 (ip), vehicle: saline with Tween-80
[2] = dose: 200.0 mg/kg/injection, schedule: Q04DX003 (ip), vehicle: saline with Tween-80
[3] = dose: 400.0 mg/kg/injection, schedule: Q04DX003 (ip), vehicle: saline with Tween-80
[4] = dose: 100.0 mg/kg/injection, schedule: Q01DX009 (ip), vehicle: Klucel (hydroxypropylcellulose) (HPC)
[5] = dose: 100.0 mg/kg/injection, schedule: Q04DX003 (ip), vehicle: Klucel (hydroxypropylcellulose) (HPC)
[6] = dose: 200.0 mg/kg/injection, schedule: Q01DX009 (ip), vehicle: Klucel (hydroxypropylcellulose) (HPC)
[7] = dose: 200.0 mg/kg/injection, schedule: Q04DX003 (ip), vehicle: Klucel (hydroxypropylcellulose) (HPC)
[8] = dose: 400.0 mg/kg/injection, schedule: Q01DX009 (ip), vehicle: Klucel (hydroxypropylcellulose) (HPC)
[9] = dose: 400.0 mg/kg/injection, schedule: Q04DX003 (ip), vehicle: Klucel (hydroxypropylcellulose) (HPC)
[10] = dose: 100.0 mg/kg/injection, schedule: Q01DX009 (ip), vehicle: saline with Tween-80
[11] = dose: 200.0 mg/kg/injection, schedule: Q01DX009 (ip), vehicle: saline with Tween-80
[12] = dose: 400.0 mg/kg/injection, schedule: Q01DX009 (ip), vehicle: saline with Tween-80
[13] = dose: 100.0 mg/kg/injection, schedule: Q01DX001 (ip), vehicle: Klucel (hydroxypropylcellulose) (HPC)
[14] = dose: 200.0 mg/kg/injection, schedule: Q01DX001 (ip), vehicle: Klucel (hydroxypropylcellulose) (HPC)
[15] = dose: 400.0 mg/kg/injection, schedule: Q01DX001 (ip), vehicle: Klucel (hydroxypropylcellulose) (HPC)
[16] = dose: 100.0 mg/kg/injection, schedule: Q04DX003 (ip), vehicle: saline

Measured: T/C

c1cc2c3c(c1)CCC3CCC2 (stereo unspecified)
inactive: [1] 90 % of control | [2] 95 % of control | [3] 97 % of control

CCNC(=S)Nc1cccc(C)c1
inactive: dose: 25.0 mg/kg/injection, schedule: Q04DX002 (ip), vehicle: gum acacia 102 % of control | dose: 50.0 mg/kg/injection, schedule: Q04DX002 (ip), vehicle: gum acacia 97 % of control | dose: 100.0 mg/kg/injection, schedule: Q04DX002 (ip), vehicle: gum acacia 97 % of control | dose: 200.0 mg/kg/injection, schedule: Q04DX002 (ip), vehicle: gum acacia 89 % of control

Cc1cc(C)nc(N)c1
inactive: dose: 12.5 mg/kg/injection, schedule: Q04DX002 (ip), vehicle: saline 105 % of control | dose: 25.0 mg/kg/injection, schedule: Q04DX002 (ip), vehicle: saline 114 % of control

Nc1cccc(S(=O)(=O)c2cccc(N)c2)c1
inactive: [4] 100 % of control | [5] 97 % of control | [6] 94 % of control | [7] 94 % of control | [8] 92 % of control | [9] 94 % of control

c1ccc(N(c2ccccc2)c2ccccc2)cc1
inactive: [4] 102 % of control | [10] 93 % of control | [5] 91 % of control | [1] 100 % of control | [6] 91 % of control | [11] 95 % of control | [7] 95 % of control | [2] 96 % of control | [8] 98 % of control | [12] 95 % of control | [9] 98 % of control | [3] 90 % of control

Cc1ccc(N)cc1CO
inactive: [13] 94 % of control | [5] 94 % of control | [14] 92 % of control | [7] 103 % of control | [15] 100 % of control | [9] 94 % of control

O=C1CCC(c2ccc3c(c2)CCCC3)O1 (stereo unspecified)
inactive: dose: 50.0 mg/kg/injection, schedule: Q01DX009 (ip), vehicle: saline with Tween-80 97 % of control | [10] 95 % of control | [1] 105 % of control | [11] 90 % of control | [2] 105 % of control | [3] 95 % of control

O=C(CBr)c1ccccc1
inactive: dose: 10.0 mg/kg/injection, schedule: Q04DX003 (ip), vehicle: saline with Tween-80 93 % of control | dose: 20.0 mg/kg/injection, schedule: Q04DX003 (ip), vehicle: saline with Tween-80 97 % of control

N#Cc1ccccc1CNc1ccccc1
inactive: [13] 94 % of control | [14] 96 % of control | [15] 96 % of control

Oc1cccc2cccnc12.[Cu+].[O-]c1cccc2cccnc12
inactive: dose: 2.5 mg/kg/injection, schedule: Q01DX009 (ip), vehicle: saline 97 % of control | dose: 2.5 mg/kg/injection, schedule: Q04DX003 (ip), vehicle: alcohol 98 % of control | dose: 5.0 mg/kg/injection, schedule: Q01DX009 (ip), vehicle: saline 108 % of control | dose: 5.0 mg/kg/injection, schedule: Q04DX003 (ip), vehicle: alcohol 112 % of control | dose: 10.0 mg/kg/injection, schedule: Q01DX009 (ip), vehicle: saline 98 % of control | dose: 10.0 mg/kg/injection, schedule: Q04DX003 (ip), vehicle: alcohol 104 % of control

Cc1cccc(NC(=O)c2ccccc2Cl)c1C
inactive: [10] 103 % of control | [1] 95 % of control | [11] 95 % of control | [2] 93 % of control | [12] 104 % of control | [3] 91 % of control

Cc1ccc(/C(C#N)=C/c2cccc([N+](=O)[O-])c2)cc1
inactive: dose: 100.0 mg/kg/injection, schedule: Q04DX002 (ip), vehicle: saline with Tween-80 95 % of control | dose: 200.0 mg/kg/injection, schedule: Q04DX002 (ip), vehicle: saline with Tween-80 88 % of control | dose: 400.0 mg/kg/injection, schedule: Q04DX002 (ip), vehicle: saline with Tween-80 98 % of control

CCCCCCCCCCCCCCCCCC[N+](C)(C)C
inactive: dose: 1.0 mg/kg/injection, schedule: Q01DX015 (ip), vehicle: saline 94 % of control | dose: 2.0 mg/kg/injection, schedule: Q01DX015 (ip), vehicle: saline 94 % of control | dose: 3.12 mg/kg/injection, schedule: Q01DX009 (ip), vehicle: saline 94 % of control | dose: 4.0 mg/kg/injection, schedule: Q01DX015 (ip), vehicle: saline 95 % of control | dose: 6.25 mg/kg/injection, schedule: Q01DX009 (ip), vehicle: saline 94 % of control | dose: 12.5 mg/kg/injection, schedule: Q04DX003 (ip), vehicle: saline 87 % of control

COC1=C(N=[N+]=[N-])C(=O)c2ccccc2C1=O
inactive: dose: 6.25 mg/kg/injection, schedule: Q04DX002 (ip), vehicle: saline with Tween-80 104 % of control | dose: 12.5 mg/kg/injection, schedule: Q04DX002 (ip), vehicle: saline with Tween-80 96 % of control

CC1(C)CC(=NNC2=NC=NC3=NC=NC32)CC(C)(C)N1O (stereo unspecified)
inactive: dose: 25.0 mg/kg/injection, schedule: Q04DX003 (ip), vehicle: saline 98 % of control | dose: 50.0 mg/kg/injection, schedule: Q04DX003 (ip), vehicle: saline 102 % of control | [16] 102 % of control

Cc1ccc(S(=O)(=O)O/N=C/C23c4ccccc4C4C(c5ccccc52)C43)cc1 (stereo unspecified)
inactive: dose: 25.0 mg/kg/injection, schedule: Q04DX002 (ip), vehicle: saline with Tween-80 100 % of control | dose: 150.0 mg/kg/injection, schedule: Q04DX002 (ip), vehicle: saline with Tween-80 93 % of control | dose: 300.0 mg/kg/injection, schedule: Q04DX002 (ip), vehicle: saline with Tween-80 93 % of control

Cc1cc(Cl)c(=O)n(-c2ccc(Cl)cc2)n1
inactive: dose: 50.0 mg/kg/injection, schedule: Q04DX003 (ip), vehicle: saline with Tween-80 109 % of control | [1] 103 % of control | [2] 98 % of control

CC(=O)c1ccc(Br)c([N+](=O)[O-])c1
inactive: dose: 100.0 mg/kg/injection, schedule: Q01DX001 (ip), vehicle: saline 95 % of control | dose: 200.0 mg/kg/injection, schedule: Q01DX001 (ip), vehicle: saline 98 % of control | dose: 400.0 mg/kg/injection, schedule: Q01DX001 (ip), vehicle: saline 103 % of control

C=CCN1CCCCC1C1(c2ccccc2)CCCC1 (stereo unspecified)
inactive: dose: 75.0 mg/kg/injection, schedule: Q01DX001 (ip), vehicle: acid diluted with saline 92 % of control

Nc1cnnc(N)c1Cl
inactive: dose: 5.0 mg/kg/injection, schedule: Q01DX001 (ip), vehicle: saline 102 % of control | dose: 10.0 mg/kg/injection, schedule: Q01DX001 (ip), vehicle: saline 113 % of control | dose: 20.0 mg/kg/injection, schedule: Q01DX001 (ip), vehicle: saline 104 % of control | dose: 40.0 mg/kg/injection, schedule: Q01DX001 (ip), vehicle: saline 95 % of control

CCCCCCCCCCCCCCCCCCSc1ccccc1
inactive: [5] 93 % of control | [7] 93 % of control | [9] 94 % of control

C=CCNCC(O)c1ccccc1 (stereo unspecified)
inactive: dose: 25.0 mg/kg/injection, schedule: Q01DX009 (ip), vehicle: Klucel (hydroxypropylcellulose) (HPC) 90 % of control | dose: 50.0 mg/kg/injection, schedule: Q01DX009 (ip), vehicle: Klucel (hydroxypropylcellulose) (HPC) 95 % of control | [4] 95 % of control and 103 % of control | [5] 95 % of control | [7] 101 % of control | [9] 95 % of control

Cc1cc(=O)[nH]c2ccc(Cc3ccc(N)cc3)cc12
inactive: dose: 100.0 mg/kg/injection, schedule: Q01DX001 (ip), vehicle: carboxymethylcellulose (CMC) 95 % of control | dose: 200.0 mg/kg/injection, schedule: Q01DX001 (ip), vehicle: carboxymethylcellulose (CMC) 96 % of control | dose: 400.0 mg/kg/injection, schedule: Q01DX001 (ip), vehicle: carboxymethylcellulose (CMC) 98 % of control

CCOC(=O)NCc1cnccn1
inactive: [16] 100 % of control and 102 % of control | dose: 200.0 mg/kg/injection, schedule: Q04DX003 (ip), vehicle: saline 95 % of control and 100 % of control | dose: 400.0 mg/kg/injection, schedule: Q04DX003 (ip), vehicle: saline 104 % of control
